Data reported in US20250032490A1, “THERAPEUTIC REGIMENS FOR TREATMENT OF PAROXYSMAL NOCTURNAL HEMOGLOBINURIA” (Achillion Pharmaceuticals, Inc., priority 2017, published 2025).

Tests used:
[1] = Phase 2 study in PNH subjects: reticulocyte count; format: in vivo, human; conditions: Compound 1 100 mg TID + IV eculizumab
Method: (§1) The starting dose of compound 1 is based upon group assignment. The Group 1 dose is 100mg three times daily (TID). The Group 2 dose is 150 mg TID. The Group 3 dose is 200 mg TID. The Group 4 dose will receive the optimal dose determined from Groups 1-3.
(§2) All doses are taken approximately 15-30 minutes after completion of a meal or snack.
(§3) This will be followed by a long-term extension phase.
(§4) 2 subjects in the first dose level of 100 mg TID have been completed and data collected through 4 weeks. Data collected include lactate dehydrogenase (LDH) levels, hemoglobin levels, reticulocytes, PNH red blood cells (Type III) percentage, C3 Fragment Deposition percentage, and bilirubin levels and their changes from baseline.
A reticulocyte count is a pharmacodynamic marker that is measured from blood drawn on Day 1, Week 1, Week 2, and Week 4 (FIGS. 15A & 15B and Table 17). A reticulocyte count measures the number of immature red blood cells in a blood sample. People who have PNH may have elevated reticulocyte counts because their bone marrow is producing a lot of new red blood cells.

C3 fragment deposition = assay: Phase 2 study in PNH subjects: C3 fragment deposition percentage; format: in vivo, human
Method: C3 fragment deposition is measured using blood by flow cytometry that would be known to those of skill in the art. In a typical protocol, a blood sample is collected from eculizumab-treated PNH patients or healthy individuals. Erythrocytes are harvested by centrifugation, washed with PBS several times until the supernatant remains clear. C3 fragment deposition on the PNH erythrocytes membrane is measured by flow cytometry using FITC-conjugated anti-C3c, PE conjugated anti-CD47 and APC-conjugated anti-CD59 following dilution of reaction mixtures in FC buffer. Intact and fragmented PNH erythrocytes are identified by anti-CD47 (positive) and anti-CD59 (negative) staining C3 fragment deposition is assessed by anti-C3c staining.
as §1, §2, §3, §4
Measurement of C3 fragment deposition percentage is a pharmacodynamic marker that is measured by flow cytometry of subject plasma samples collected on Day 1, Week 2, and Week 4 (FIGS. 17A & 17B and Table 19). Uncontrolled C3 activation due to the absence of CD55 on red blood cells may result in opsonization of red blood cells, leading to clinically meaningful extravascular hemolysis.

CC(=O)c1nn(CC(=O)N2C[C@H](F)C[C@H]2C(=O)Nc2cccc(Br)n2)c2ccc(-c3cnc(C)nc3)cc12 [Compound 1, (2S,4R)-1-(2-(3-acetyl-5-(2-methylpyrimidin-5-yl)-1H-indazol-1-yl)acetyl)-N-(6-bromopyridin-2-yl)-4-fluoropyrrolidine-2-carboxamide]
RETICULOCYTES Observed ([1]; subject 003-001, DAY 1 (baseline)): 159 10^9/L | RETICULOCYTES CFB (change from baseline) ([1]; subject 003-001, DAY 1): 0 10^9/L | RETICULOCYTES CFB (change from baseline) ([1]; subject 003-001, WEEK 1): −39 10^9/L | RETICULOCYTES Observed ([1]; subject 003-001, WEEK 1): 120 10^9/L | RETICULOCYTES CFB (change from baseline) ([1]; subject 003-001, WEEK 2): −34 10^9/L | RETICULOCYTES Observed ([1]; subject 003-001, WEEK 2): 125 10^9/L | RETICULOCYTES CFB (change from baseline) ([1]; subject 003-001, WEEK 4): −64 10^9/L | RETICULOCYTES Observed ([1]; subject 003-001, WEEK 4): 95 10^9/L | RETICULOCYTES Observed ([1]; subject 003-002, DAY 1 (baseline)): 250 10^9/L | RETICULOCYTES CFB (change from baseline) ([1]; subject 003-002, DAY 1): 0 10^9/L | RETICULOCYTES CFB (change from baseline) ([1]; subject 003-002, WEEK 1): −106 10^9/L | RETICULOCYTES Observed ([1]; subject 003-002, WEEK 1): 144 10^9/L | RETICULOCYTES CFB (change from baseline) ([1]; subject 003-002, WEEK 2): −85 10^9/L | RETICULOCYTES Observed ([1]; subject 003-002, WEEK 2): 165 10^9/L | RETICULOCYTES CFB (change from baseline) ([1]; subject 003-002, WEEK 4): −118 10^9/L | RETICULOCYTES Observed ([1]; subject 003-002, WEEK 4): 132 10^9/L | C3 FRAGMENT DEPOSITION (%) CFB (change from baseline) (C3 fragment deposition; PNH subject 003-001, DAY 1): 0.00% | C3 FRAGMENT DEPOSITION (%) Observed (C3 fragment deposition; PNH subject 003-001, DAY 1 (baseline), flow cytometry): 2.60% | C3 FRAGMENT DEPOSITION (%) CFB (change from baseline) (C3 fragment deposition; PNH subject 003-001, WEEK 2): −0.50% | C3 FRAGMENT DEPOSITION (%) Observed (C3 fragment deposition; PNH subject 003-001, WEEK 2, flow cytometry): 2.10% | C3 FRAGMENT DEPOSITION (%) CFB (change from baseline) (C3 fragment deposition; PNH subject 003-001, WEEK 4): −0.50% | C3 FRAGMENT DEPOSITION (%) Observed (C3 fragment deposition; PNH subject 003-001, WEEK 4, flow cytometry): 2.10% | C3 FRAGMENT DEPOSITION (%) CFB (change from baseline) (C3 fragment deposition; PNH subject 003-002, DAY 1): 0.00% | C3 FRAGMENT DEPOSITION (%) Observed (C3 fragment deposition; PNH subject 003-002, DAY 1 (baseline), flow cytometry): 4.20% | C3 FRAGMENT DEPOSITION (%) CFB (change from baseline) (C3 fragment deposition; PNH subject 003-002, WEEK 2): −3.10% | C3 FRAGMENT DEPOSITION (%) Observed (C3 fragment deposition; PNH subject 003-002, WEEK 2, flow cytometry): 1.10% | C3 FRAGMENT DEPOSITION (%) CFB (change from baseline) (C3 fragment deposition; PNH subject 003-002, WEEK 4): −3.10% | C3 FRAGMENT DEPOSITION (%) Observed (C3 fragment deposition; PNH subject 003-002, WEEK 4, flow cytometry): 1.10%
